Test results taken from ChEMBL document CHEMBL4420075, “Seriniquinones, melanoma-specific anticancer agents” (2016).
Calls of active or inactive are those of the source.

How the values were obtained:
HCT-116 [1] = test: Induction of autophagy in human HCT116 cells assessed as increase in of LC3B-II level at 17 uM incubated for 24 hrs by Western blot analysis; assay type: functional, cell-based
HCT-116 [2] = test: Induction of autophagy in human HCT116 cells assessed as increase in of LC3A-II level at 17 uM incubated for 24 hrs by Western blot analysis; assay type: functional, cell-based
[3] = Drug accumulation in human MALME-3M cells assessed as sub-cellular localization in endoplasmic reticulum measured up to 9 hrs by ER-tracker-blue based confocal microscopy; assay type: ADME, subcellular
Dermcidin (Homo sapiens) [4] = molecular target: T1, Dermcidin (Homo sapiens) (UniProt P81605); test: Binding affinity to dermcidin in human HCT116 cells at 50 uM incubated for 8 hrs by anti-IAF mAb based immunoprecipitation assay; assay type: cell-based
T1 sequence (whole entry): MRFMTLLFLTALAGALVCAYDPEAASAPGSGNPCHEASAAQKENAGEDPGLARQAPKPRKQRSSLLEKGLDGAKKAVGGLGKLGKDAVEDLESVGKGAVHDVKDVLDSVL

Homo sapiens [5] = species: Homo sapiens; test: Binding affinity to actin in human HCT116 cells at 50 uM incubated for 8 hrs by LC-MS/MS analysis; assay type: cell-based
Dermcidin (Homo sapiens) [6] = molecular target: T1, Dermcidin (Homo sapiens); test: Binding affinity to dermcidin in human HCT116 cell lysates at 3 to 30 uM incubated for 8 hrs by anti-IAF mAb based immunoprecipitation assay; assay type: subcellular; conditions: Lysate
Dermcidin (Homo sapiens) [7] = molecular target: T1, Dermcidin (Homo sapiens); test: Covalent binding affinity to dermcidin in human HCT116 cell lysates at 30 uM incubated for 8 hrs by Western blot analysis; assay type: subcellular; conditions: Lysate
[8] = molecular target: Glyceraldehyde-3-phosphate dehydrogenase (Homo sapiens) (UniProt P04406); test: Covalent binding affinity to GADPH in human HCT116 cell lysates at 30 uM incubated for 8 hrs by Western blot analysis; assay type: subcellular; conditions: Lysate
Chain of Glyceraldehyde-3-phosphate dehydrogenase (Homo sapiens) (P04406 2-335 limits assumed): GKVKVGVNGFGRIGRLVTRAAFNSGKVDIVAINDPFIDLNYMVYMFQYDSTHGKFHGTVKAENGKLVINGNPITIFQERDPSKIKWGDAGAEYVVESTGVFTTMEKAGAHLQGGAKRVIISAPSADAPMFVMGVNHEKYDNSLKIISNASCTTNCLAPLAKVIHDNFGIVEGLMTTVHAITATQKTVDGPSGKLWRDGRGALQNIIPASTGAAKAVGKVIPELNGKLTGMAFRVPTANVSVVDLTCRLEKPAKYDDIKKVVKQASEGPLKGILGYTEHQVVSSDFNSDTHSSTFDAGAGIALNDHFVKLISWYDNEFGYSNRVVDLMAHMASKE

Homo sapiens [9] = species: Homo sapiens; test: Binding affinity to HSP70 in human HCT116 cells at 50 uM incubated for 8 hrs by LC-MS/MS analysis; assay type: cell-based
[10] = Drug accumulation in human HCT116 cells assessed as sub-cellular localization in autophagosomes measured after 6 hrs by dansyl-cadaverine based confocal microscopy; assay type: ADME, subcellular, Autophagosome; conditions: hct-116, 6 h
[11] = molecular target: Glyceraldehyde-3-phosphate dehydrogenase (Homo sapiens) (UniProt P04406); test: Binding affinity to GADPH in human HCT116 cells at 50 uM incubated for 8 hrs by LC-MS/MS analysis; assay type: cell-based
[12] = Drug accumulation in human HCT116 cells assessed as sub-cellular localization in endoplasmic reticulum measured up to 9 hrs by ER-tracker-blue based confocal microscopy; assay type: ADME, subcellular; conditions: hct-116, 9 h
Dermcidin (Homo sapiens) [13] = molecular target: T1, Dermcidin (Homo sapiens); test: Binding affinity to dermcidin in human HCT116 cells at 50 uM incubated for 8 hrs by LC-MS/MS analysis; assay type: cell-based
[14] = Drug accumulation in human MALME-3M cells assessed as sub-cellular localization in autophagosomes measured after 6 hrs by dansyl-cadaverine based confocal microscopy; assay type: ADME, subcellular, Autophagosome
HCT-116 [15] = test: Reduction in cyclin D2 protein expression in human HCT116 cells at 3 to 30 uM incubated for 24 hrs by Western blot analysis; assay type: functional, cell-based
[16] = Drug accumulation in human SF295 cells assessed as sub-cellular localization at 30 uM incubated for 1 hr by DAPI staining based; assay type: ADME, cell-based; conditions: sf-295, 1 h
HCT-116 [17] = test: Induction of autophagy in human HCT116 cells assessed as increase in of LC3B-II level incubated for 24 hrs by Western blot analysis; assay type: functional, cell-based
HCT-116 [18] = test: Reduction in cyclin D1 protein expression in human HCT116 cells at 3 to 30 uM incubated for 24 hrs by Western blot analysis; assay type: functional, cell-based
PC-3 = test: Induction of auto-phagocytosis in human PC3 cells at 30 uM incubated for 1 hr by time course imaging assay; assay type: functional, cell-based
[19] = Drug accumulation in human PC3M cells assessed as sub-cellular localization at 30 uM incubated for 1 hr by DAPI staining based; assay type: ADME, cell-based; conditions: pc-3m
[20] = Drug accumulation in human HCT8 cells assessed as sub-cellular localization at 30 uM incubated for 1 hr by DAPI staining based; assay type: ADME, cell-based; conditions: hct-8, 1 h
HCT-116 [21] = test: Induction of DNA fragmentation in human HCT116 cells at 0.3 to 30 uM incubated for 24 hrs by FACS analysis; assay type: functional, cell-based
HCT-116 [22] = test: Induction of apoptosis in human HCT116 cells assessed as induction of caspase-3 cleavage at 3 to 30 uM incubated for 24 hrs by Western blot analysis; assay type: functional, cell-based
[23] = Drug accumulation in human PC3 cells assessed as sub-cellular localization in endoplasmic reticulum at 30 uM incubated for 1 hr by time course imaging assay; assay type: ADME, subcellular; conditions: pc-3, 1 h
[24] = Drug accumulation in human MALME-3M cells assessed as sub-cellular localization at 30 uM incubated for 1 hr by DAPI staining based; assay type: ADME, cell-based
HCT-116 [25] = test: Induction of apoptosis in human HCT116 cells assessed as induction of PARP cleavage at 3 to 30 uM incubated for 24 hrs by Western blot analysis; assay type: functional, cell-based
Dermcidin (Homo sapiens) [26] = molecular target: T1, Dermcidin (Homo sapiens); test: Covalent binding affinity to DCD-1L (unknown origin) at 50 uM incubated for 24 hrs by denatured SDS-PAGE gel electrophoresis
[27] = Drug accumulation in human HCT116 cells assessed as sub-cellular localization at 5 uM incubated for 1 hr by DAPI staining based; assay type: ADME, cell-based; conditions: hct-116, 1 h
HCT-116 [28] = test: Reduction in cyclin D3 protein expression in human HCT116 cells at 3 to 30 uM incubated for 24 hrs by Western blot analysis; assay type: functional, cell-based
HCT-116 [29] = test: Induction of apoptosis in human HCT116 cells assessed as induction of caspase-7 cleavage at 3 to 30 uM incubated for 24 hrs by Western blot analysis; assay type: functional, cell-based
HCT-116 [30] = test: Induction of autophagy in human HCT116 cells assessed as increase in of LC3A-II level incubated for 24 hrs by Western blot analysis; assay type: functional, cell-based
HCT-116 [31] = test: Induction of cell cycle arrest in human HCT116 cells assessed as accumulation at S phase at 0.3 to 30 uM incubated for 18 to 24 hrs by propidium iodide staining based assay; assay type: functional
HCT-116 [32] = test: Induction of apoptosis in human HCT116 cells assessed as induction of caspase-9 cleavage at 3 to 30 uM incubated for 24 hrs by Western blot analysis; assay type: functional, cell-based

COc1cc([C@@H]2c3cc4c(cc3[C@@H](O[C@@H]3O[C@@H]5CO[C@@H](C)O[C@H]5[C@H](O)[C@H]3O)[C@H]3COC(=O)[C@H]23)OCO4)cc(OC)c1O
active: Activity (HCT-116 [1]) | Activity (HCT-116 [2])

CN(C)c1ccc2c(CC(=O)NCCCCCCNC(=O)CCc3ccc4c(=O)c5c(sc6c(=O)c7ccccc7c(=O)c65)c(=O)c4c3)cc(=O)oc2c1
Active: Drug uptake [3] | Drug uptake [10] | Drug uptake [12] | Drug uptake [14]
active: Activity (Dermcidin (Homo sapiens) [4]) | Activity (Homo sapiens [5]) | Activity (Dermcidin (Homo sapiens) [6]) | Activity (Dermcidin (Homo sapiens) [7]) | Activity [8] | Activity (Homo sapiens [9]) | Activity [11] | Activity (Dermcidin (Homo sapiens) [13])

O=c1c2ccccc2c(=O)c2c1sc1c(=O)c3ccccc3c(=O)c12
active: Activity (HCT-116 [15]) | Activity (HCT-116 [17]) Dose-dependent effect | Activity (HCT-116 [18]) | Activity (PC-3) | Activity (HCT-116 [21]) Dose-dependent effect | Activity (HCT-116 [22]) | Activity (HCT-116 [25]) | Activity (Dermcidin (Homo sapiens) [26]) | Activity (HCT-116 [28]) | Activity (HCT-116 [29]) | Activity (HCT-116 [30]) Dose-dependent effect | Activity (HCT-116 [31]) Dose-dependent effect | Activity (HCT-116 [32])
Active: Drug uptake [3] | Drug uptake [16] | Drug uptake [19] | Drug uptake [20] | Drug uptake [23] | Drug uptake [24] | Drug uptake [10] | Drug uptake [27] | Drug uptake [12] | Drug uptake [14]
